Usually IC50 stands for the point on the concentration scale where inhibition reaches its midpoint.

Results on 17 compounds are retold here after patent US20220153734A1, “Pyrazolopyridine Compounds For IRE1 Inhibition” (Optikira, LLC, priority 2019, published 2022).

One assay deals with T1, IRE1α (Homo sapiens, UniProt O75460).
T1 construct: purchased Signal Chem E31-11G
Description: Biochemical assay: inhibition of RNase activity of IRE1α. The following applies: enzyme 0.325 nM, substrate 100 nM, 20 minutes. The method, then: Biochemical Assay: Inhibition of RNase Activity of IRE1α
The RNase reactions were performed in 384 well black ProxiPlate-384 Plus plates (PERKIN Elmer) using 50 mM Tris assay buffer with 0.5 mM MgCl2, 10 mM KCl, 0.03% Tween, 2 mM DTT and 1% DMSO. Test compounds were prepared on the day of assay and dispensed using D300 digital dispenser as a 10-point ½ log dilution series in duplicate, normalized to a final DMSO concentration of […]. Test compounds were pre-incubated for 30 min at room temperature with IRE1α kinase (E31-11G from Signal Chem) in 2.5 μL of assay buffer. Then 2.5 μl of assay buffer containing substrate (5′ Alexa Fluor 647-rCrArU rGrUrC rCrGrC rArGrC rGrCrArUrG-Iowa Black RQ quencher 3′) added, giving a final concentration of enzyme of 0.325 nM and of substrate of 100 nM. After 20 minutes incubation at room temperature the reactions were stopped by added 5 μL of 5M urea, incubated at room temperature for 10 minutes and fluorescence measured on a plate reader (EnVision, PerkinElmer). IC50 values calculated by fitting a sigmoidal curve to percent inhibition of control versus compound concentration.

Assay [1] relates to ARPE-19 cells stably expressing XBP1 (a.a. 1-376). Description: Cellular XBP1 splicing assay (NanoLuc luciferase, thapsigargin). The assay is classed as cell-based. The following applies: thapsigargin 150 nM. The protocol: Cellular XBP1 Splicing Assay
ARPE-19 cells stably expressing XBP1 (a.a. 1-376) with nano-luciferase gene sequence linked so it is in frame when XBP1 is spliced, were cultured in F12 media, 10% FBS, 0.044% sodium bicarbonate, 150 μg/ml hygromycin B and seeded for assays at 5,000 cells in 384 well plates in culture media without hygromycin B and incubated at 37° C./5% CO2. After overnight incubation test compounds were added to the cell plate in a 10-point ½ log dilution series in duplicate (final DMSO concentration 0.117%). After further incubation of 30 minutes thapsigargin was added (final concentration 150 nM) and then another 4 hour incubation. A NanoLuc luciferase assay (Promega) was used according to the manufacturer's instructions to detect the luciferase and luminescence measured on a luminometer (EnVision, PerkinElmer). IC50 values calculated by fitting a sigmoidal curve to percent inhibition of control of compound concentration.

T1 sequence (O75460 468-977 limits assumed): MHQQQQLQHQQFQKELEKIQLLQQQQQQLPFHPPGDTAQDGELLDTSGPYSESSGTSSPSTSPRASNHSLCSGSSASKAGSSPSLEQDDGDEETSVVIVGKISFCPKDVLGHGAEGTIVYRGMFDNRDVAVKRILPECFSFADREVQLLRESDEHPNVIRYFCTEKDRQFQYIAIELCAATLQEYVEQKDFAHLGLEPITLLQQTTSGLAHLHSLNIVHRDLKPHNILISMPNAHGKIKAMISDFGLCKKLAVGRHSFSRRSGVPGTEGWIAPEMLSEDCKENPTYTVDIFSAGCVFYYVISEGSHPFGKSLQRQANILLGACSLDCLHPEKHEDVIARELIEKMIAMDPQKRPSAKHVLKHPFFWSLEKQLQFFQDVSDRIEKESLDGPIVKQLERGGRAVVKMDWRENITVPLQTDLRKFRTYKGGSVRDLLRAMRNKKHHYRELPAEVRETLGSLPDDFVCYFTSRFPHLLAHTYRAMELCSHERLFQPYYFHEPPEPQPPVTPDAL

As to `CC(C)n1nc(-c2ccc(NS(=O)(=O)c3ccccc3F)c(F)c2)c2c(N)ncc(C3=CCC(NC4COC4)CC3)c21` (racemic) [racemic mixture of B58 & B59, N-(4-(4-amino-1-isopropyl-7-(4-(oxetan-3-ylamino)cyclohex-1-en-1-yl)-1H-pyrazolo[4,3-c]pyridin-3-yl)-2-fluorophenyl)-2-fluorobenzenesulfonamide], the IC50 is 0.061 µM against IRE1α and 0.092 µM in assay [1] (Homo sapiens, ARPE-19, 4 h).
As to `CCn1nc(-c2ccc(NS(=O)(=O)c3ccccc3Cl)c(F)c2)c2c(N)ncc(C3=CCC(NC4COC4)CC3)c21` (racemic) [racemic mixture of B61 & B62, N-(4-(4-amino-1-ethyl-7-(4-(oxetan-3-ylamino)cyclohex-1-en-1-yl)-1H-pyrazolo[4,3-c]pyridin-3-yl)-2-fluorophenyl)-2-chlorobenzenesulfonamide], the IC50 worked out at 0.04 µM at IRE1α and 0.1 µM in assay [1] (Homo sapiens, ARPE-19, 4 h).
In the case of `CC(C)n1nc(-c2ccc(NS(=O)(=O)Cc3ccccc3F)c(F)c2)c2c(N)ncc(C3=CCC(NC4COC4)CC3)c21` (single isomer, unassigned) [Compound B1, N-(4-(4-amino-1-isopropyl-7-(4-(oxetan-3-ylamino)cyclohex-1-en-1-yl)-1H-pyrazolo[4,3-c]pyridin-3-yl)-2-fluorophenyl)-1-(2-fluorophenyl)methanesulfonamide], the IC50 against IRE1α was 0.0024 µM; in assay [1] (4 hour), 0.03 µM.
As for `COCC(C)NC1CC=C(c2cnc(N)c3c(-c4ccc(NS(=O)(=O)Cc5ccccc5Cl)c(F)c4)nn(C(C)C)c23)CC1` (single isomer, unassigned) [Compound B4, N-(4-(4-amino-1-isopropyl-7-(4-((1-methoxypropan-2-yl)amino)cyclohex-1-en-1-yl)-1H-pyrazolo[4,3-c]pyridin-3-yl)-2-fluorophenyl)-1-(2-chlorophenyl)methanesulfonamide], the IC50 on IRE1α amounted to 0.0012 µM; in assay [1] (Homo sapiens, ARPE-19, 4 h), 0.0068 µM.
As for `COCC(C)NC1CC=C(c2cnc(N)c3c(-c4ccc(NS(=O)(=O)Cc5ccccc5Cl)c(F)c4)nn(C(C)C)c23)CC1` (single isomer, unassigned) [Compound B5, N-(4-(4-amino-1-isopropyl-7-(4-((1-methoxypropan-2-yl)amino)cyclohex-1-en-1-yl)-1H-pyrazolo[4,3-c]pyridin-3-yl)-2-fluorophenyl)-1-(2-chlorophenyl)methanesulfonamide], the half-maximal inhibitory concentration (IC50) at IRE1α was found to be 0.0012 µM; in assay [1] (4 hour) it was 0.0065 µM.
In the case of `CC(C)n1nc(-c2cc(F)c(NS(=O)(=O)Cc3ccccc3Cl)cc2F)c2c(N)ncc(C3=CCC(NC4COC4)CC3)c21` (single isomer, unassigned) [Compound B7, N-(4-(4-amino-1-isopropyl-7-(4-(oxetan-3-ylamino)cyclohex-1-en-1-yl)-1H-pyrazolo[4,3-c]pyridin-3-yl)-2,5-difluorophenyl)-1-(2-chlorophenyl)methanesulfonamide], the IC50 was 0.021 µM against IRE1α and 0.41 µM in assay [1] (4 hour).
In the case of `COc1ccc(Cl)c(S(=O)(=O)Nc2ccc(-c3nn(C(C)C)c4c(C5=CCC(NC6COC6)CC5)cnc(N)c34)cc2F)c1` (single isomer, unassigned) [Compound B8, N-(4-(4-amino-1-isopropyl-7-(4-(oxetan-3-ylamino)cyclohex-1-en-1-yl)-1H-pyrazolo[4,3-c]pyridin-3-yl)-2-fluorophenyl)-2-chloro-5-methoxybenzenesulfonamide], the IC50 against IRE1α came to 0.0067 µM; in assay [1] (4 hour), 0.019 µM.
Take `COc1ccc(Cl)c(S(=O)(=O)Nc2ccc(-c3nn(C(C)C)c4c(C5=CCC(NC6COC6)CC5)cnc(N)c34)cc2F)c1` (single isomer, unassigned) [Compound B9, N-(4-(4-amino-1-isopropyl-7-(4-(oxetan-3-ylamino)cyclohex-1-en-1-yl)-1H-pyrazolo[4,3-c]pyridin-3-yl)-2-fluorophenyl)-2-chloro-5-methoxybenzenesulfonamide]: the IC50 against IRE1α came to 0.07 µM; in assay [1] (4 hour), 0.15 µM.
Take `CC(C)n1nc(-c2cc(F)c(NS(=O)(=O)c3ccccc3Cl)cc2F)c2c(N)ncc(C3=CCC(NC4COC4)CC3)c21` (single isomer, unassigned) [Compound B11, N-(4-(4-amino-1-isopropyl-7-(4-(oxetan-3-ylamino)cyclohex-1-en-1-yl)-1H-pyrazolo[4,3-c]pyridin-3-yl)-2,5-difluorophenyl)-2-chlorobenzenesulfonamide]: the figures for the IC50 (against IRE1α; in assay [1] (4 hour)) were 0.034 µM and 0.5 µM, respectively.
Consider `CC(C)n1nc(-c2ccc(NS(=O)(=O)Cc3ccccc3Cl)c(F)c2)c2c(N)ncc(C3=CCC(NC4COC4)CC3)c21` (single isomer, unassigned) [Compound B13, N-(4-(4-amino-1-isopropyl-7-(4-(oxetan-3-ylamino)cyclohex-1-en-1-yl)-1H-pyrazolo[4,3-c]pyridin-3-yl)-2-fluorophenyl)-1-(2-chlorophenyl)methanesulfonamide], for which the IC50 against IRE1α was 0.0052 µM; in assay [1] (4 hour), 0.09 µM.
Regarding `CC(C)n1nc(-c2ccc(NS(=O)(=O)c3cc(Cl)ccc3F)c(F)c2)c2c(N)ncc(C3=CCC(NC4COC4)CC3)c21` (single isomer, unassigned) [Compound B14, N-(4-(4-amino-1-isopropyl-7-(4-(oxetan-3-ylamino)cyclohex-1-en-1-yl)-1H-pyrazolo[4,3-c]pyridin-3-yl)-2-fluorophenyl)-5-chloro-2-fluorobenzenesulfonamide], the 50% inhibitory concentration (IC50) against IRE1α came out at 0.0068 µM; in assay [1] (4 hour), 0.16 µM.
As to `CC(C)n1nc(-c2ccc(NS(=O)(=O)c3cc(Cl)ccc3F)c(F)c2)c2c(N)ncc(C3=CCC(NC4COC4)CC3)c21` (single isomer, unassigned) [Compound B15, N-(4-(4-amino-1-isopropyl-7-(4-(oxetan-3-ylamino)cyclohex-1-en-1-yl)-1H-pyrazolo[4,3-c]pyridin-3-yl)-2-fluorophenyl)-5-chloro-2-fluorobenzenesulfonamide], the IC50 was 0.0014 µM against IRE1α and 0.024 µM in assay [1] (4 hour).
With `Cc1ccc(F)c(S(=O)(=O)Nc2ccc(-c3nn(C(C)C)c4c(C5=CCC(NC6COC6)CC5)cnc(N)c34)cc2F)c1` (single isomer, unassigned) [Compound B16, N-(4-(4-amino-1-isopropyl-7-(4-(oxetan-3-ylamino)cyclohex-1-en-1-yl)-1H-pyrazolo[4,3-c]pyridin-3-yl)-2-fluorophenyl)-2-fluoro-5-methylbenzenesulfonamide], the IC50 came to 0.013 µM at IRE1α and 0.11 µM in assay [1] (4 hour).
`Cc1ccc(F)c(S(=O)(=O)Nc2ccc(-c3nn(C(C)C)c4c(C5=CCC(NC6COC6)CC5)cnc(N)c34)cc2F)c1` (single isomer, unassigned) [Compound B17, N-(4-(4-amino-1-isopropyl-7-(4-(oxetan-3-ylamino)cyclohex-1-en-1-yl)-1H-pyrazolo[4,3-c]pyridin-3-yl)-2-fluorophenyl)-2-fluoro-5-methylbenzenesulfonamide]: the concentration for half-maximal inhibition (IC50) on IRE1α was determined as 0.0022 µM; in assay [1] (4 hour), 0.021 µM.
For the compound `Nc1ncc(C2=CCC(NC3COC3)CC2)c2c1c(-c1ccc(NS(=O)(=O)c3ccccc3Cl)c(F)c1)nn2C1CC1` (single isomer, unassigned) [Compound B18, N-(4-(4-amino-1-cyclopropyl-7-(4-(oxetan-3-ylamino)cyclohex-1-en-1-yl)-1H-pyrazolo[4,3-c]pyridin-3-yl)-2-fluorophenyl)-2-chlorobenzenesulfonamide], the figures for the IC50 (at IRE1α; in assay [1] (4 hour)) were 0.0099 µM and 0.082 µM, respectively.
On to `Nc1ncc(C2=CCC(NC3COC3)CC2)c2c1c(-c1ccc(NS(=O)(=O)c3ccccc3Cl)c(F)c1)nn2C1CC1` (single isomer, unassigned) [Compound B19, N-(4-(4-amino-1-cyclopropyl-7-(4-(oxetan-3-ylamino)cyclohex-1-en-1-yl)-1H-pyrazolo[4,3-c]pyridin-3-yl)-2-fluorophenyl)-2-chlorobenzenesulfonamide], for which the IC50 at IRE1α was found to be 0.0035 µM; in assay [1] (4 hour) it was 0.02 µM.
Take `Nc1ncc(C2=CCC(NC3COC3)CC2)c2c1c(-c1ccc(NS(=O)(=O)Cc3ccccc3Cl)c(F)c1)nn2C1CC1` (single isomer, unassigned) [Compound B22, N-(4-(4-amino-1-cyclopropyl-7-(4-(oxetan-3-ylamino)cyclohex-1-en-1-yl)-1H-pyrazolo[4,3-c]pyridin-3-yl)-2-fluorophenyl)-1-(2-chlorophenyl)methanesulfonamide]: the IC50 stood at 0.0009 µM on IRE1α and 0.01 µM in assay [1] (4 hour).
